The nature of this series: Solubility in hERG test solution (HB-PS + 0.3% DMSO). It is filed as physicochemical. The following applies: 30 μM nominal concentration. How it is done: All chemicals used in solution preparation were purchased from Sigma-Aldrich (St. Louis, Mo.) unless otherwise noted and were of ACS reagent grade purity or higher. Stock solutions of the test article and the positive control were prepared in dimethyl sulfoxide (DMSO) and stored frozen. Test article and positive control concentrations were prepared fresh daily by diluting stock solutions into a HEPES-buffered physiological saline (HB-PS) solution (composition in mM): NaCl, 137; KCl, 4.0; CaCl2, 1.8; MgCl2, 1; HEPES, 10; Glucose, 10; pH adjusted to 7.4 with NaOH (prepared weekly and refrigerated until use).
Experiments were performed as outlined in the section entitled Experimental Procedures. Concentrations were selected to evaluate the concentration-response relationship of each test article based on the initial results or the solubility limits in vehicle. Each concentration was tested in at least three cells (n≧3).
Each test article at 10 μM was applied to at least 3 cells (n≧3).

Molecules are shown by their SMILES.

Regarding `CC(C)(C)NCc1cc(C(C)(C)C)cc(-c2cnc(C(F)(F)F)nc2)c1O.Cl` [Example 33, 4-(tert-Butyl)-2-((tert-butylamino)methyl)-6-(2-(trifluoromethyl)pyrimidin-5-yl)phenol hydrochloride], the “Solubility in hERG test solution” value is recorded as “not in solution”.

In the case of `CC(C)(C)NCc1cc(C(C)(C)C)cc(-c2cnc(C(F)(F)F)c(F)c2)c1O.Cl` [Example 34, 4-(tert-Butyl)-2-((tert-butylamino)methyl)-6-(5-fluoro-6-(trifluoromethyl)pyridin-3-yl)phenol hydrochloride], the “Solubility in hERG test solution” value is “not in solution”.

For the origin of these results see patent US9409893B2, “Heteroaryl derivatives and uses thereof” (Jacobus Pharmaceutical Company, Inc., priority 2012, dated 2016).
